This is an account of results in patent US20260250290A1 (BRISTOL-MYERS SQUIBB COMPANY, priority 2023, published 2026).

Structures can show the parent of a compound that is named as a salt.

The IC50 is the concentration that gives 50% inhibition.

This test concerns the target T1, full length SGK1 (Homo sapiens, UniProt O00141).
T1 construct: 125 μM full length SGK1 (Life Technologies Part #PR7358A); purchased Life Technologies PR7358A
T1 sequence (O00141 1-431): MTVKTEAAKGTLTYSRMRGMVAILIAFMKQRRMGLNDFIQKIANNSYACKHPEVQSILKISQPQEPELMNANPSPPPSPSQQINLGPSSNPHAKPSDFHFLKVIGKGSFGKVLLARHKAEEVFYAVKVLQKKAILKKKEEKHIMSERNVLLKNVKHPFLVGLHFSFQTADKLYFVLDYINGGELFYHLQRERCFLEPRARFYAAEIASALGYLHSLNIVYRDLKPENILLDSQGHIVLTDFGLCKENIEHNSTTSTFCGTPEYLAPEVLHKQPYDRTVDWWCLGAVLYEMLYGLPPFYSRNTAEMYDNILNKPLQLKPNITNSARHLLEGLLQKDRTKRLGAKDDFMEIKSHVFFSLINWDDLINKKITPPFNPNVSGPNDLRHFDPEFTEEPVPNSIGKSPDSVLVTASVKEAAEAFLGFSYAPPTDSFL
The test can be described thus: SGK1 inhibition Assay A (Caliper LabChip electrophoretic separation of fluorescent peptide substrate and phosphorylated product). Type of test: biochemical. As to conditions: Assay A; 20 μM ATP, 40 min incubation; read-out: SGK1 IC50.
Consider `COC(=O)N1CC=C(c2cc(N3CCC[C@@H](NC(=O)c4sc(Cl)cc4OCCN(C)C)C3)c3c(N)ncnn23)CC1` [Example 174, methyl (R)-4-(4-amino-5-(3-(5-chloro-3-(2-(dimethylamino)ethoxy)thiophene-2-carboxamido)piperidin-1-yl)pyrrolo[2,1-f][1,2,4]triazin-7-yl)-3,6-dihydropyridine-1(2H)-carboxylate], for which the IC50 was found to be 37 nM.

As to `CC(=O)N1CC=C(c2cc(N3CCC[C@@H](NC(=O)c4sc(Cl)cc4OC4CCNC4)C3)c3c(N)ncnn23)C1` (stereo partly drawn) [Example 636, N-((R)-1-(7-(1-acetyl-2,5-dihydro-1H-pyrrol-3-yl)-4-aminopyrrolo[2,1-f][1,2,4]triazin-5-yl)piperidin-3-y1)-5-chloro-3-(pyrrolidin-3-yloxy)thiophene-2-carboxamide], the IC50 amounted to 5 nM.

On to `Cc1cc(-c2cc(N3CCC[C@@H](NC(=O)c4sc(Cl)cc4OCCN(C)C)C3)c3c(N)ncnn23)cn(C(C)C)c1=O` [Example 693, (R)—N-(1-(4-amino-7-(1-isopropyl-5-methyl-6-oxo-1,6-dihydropyridin-3-yl)pyrrolo[2,1-f][1,2,4]triazin-5-yl)piperidin-3-yl)-5-chloro-3-(2-(dimethylamino)ethoxy)thiophene-2-carboxamide], for which the IC50 is 69 nM.

Consider `N#Cc1ccc2[nH]nc(C(=O)N[C@@H]3CCCN(c4cc(-c5cncnc5)n5ncnc(N)c45)C3)c2c1` [Example 685, (R)—N-(1-(4-amino-7-(pyrimidin-5-yl)pyrrolo[2,1-f][1,2,4]triazin-5-yl)piperidin-3-yl)-5-cyano-1H-indazole-3-carboxamide], for which the IC50 amounted to 276 nM.

Regarding `CC(=O)N1CC=C(c2cc(N3CCC[C@@H](NC(=O)c4ccc(-c5cn[nH]c5)s4)C3)c3c(N)ncnn23)C1` [Example 550, (R)-N-(1-(7-(1-acetyl-2,5-dihydro-1H-pyrrol-3-yl)-4-aminopyrrolo[2,1-f][1,2,4]triazin-5-yl)piperidin-3-yl)-5-(1H-pyrazol-4-yl)thiophene-2-carboxamide], the IC50 amounted to 8 nM.

Take `CC(=O)N1CC=C(c2cc(N3CCC[C@@H](NC(=O)c4ccc5c(c4)OCO5)C3)c3c(N)ncnn23)C1` [Example 467, (R)-N-(1-(7-(1-acetyl-2,5-dihydro-1H-pyrrol-3-yl)-4-aminopyrrolo[2,1-f][1,2,4]triazin-5-yl)piperidin-3-yl)benzo[d][1,3]dioxole-5-carboxamide]: the IC50 turned out to be 64 nM.

With `CC(=O)N1CC=C(c2cc(N3CCC[C@@H](NC(=O)c4cccc(CN5CCN(C)CC5)n4)C3)c3c(N)ncnn23)C1` [Example 727, (R)-N-(1-(7-(1-acetyl-2,5-dihydro-1H-pyrrol-3-yl)-4-aminopyrrolo[2,1-f][1,2,4]triazin-5-yl)piperidin-3-yl)-6-((4-methylpiperazin-1-yl)methyl)picolinamide], the IC50 amounted to 161 nM.

Turning to `COC(=O)C12CC(C(=O)N[C@@H]3CCCN(c4cc(C5=CCN(C(C)=O)C5)n5ncnc(N)c45)C3)(C1)C2` [Example 478, Methyl(R)-3-((1-(7-(1-acetyl-2,5-dihydro-1H-pyrrol-3-yl)-4-aminopyrrolo[2,1-f][1,2,4]triazin-5-yl)piperidin-3-yl)carbamoyl)bicyclo[1.1.1]pentane-1-carboxylate], the IC50 was 771 nM.

`CC(=O)N1CC=C(c2cc(N3CCC[C@@H](NC(=O)c4cccc(N5CCNCC5)n4)C3)c3c(N)ncnn23)C1` [Example 813, (R)—N-(1-(7-(1-acetyl-2,5-dihydro-1H-pyrrol-3-yl)-4-aminopyrrolo[2,1-f][1,2,4]triazin-5-yl)piperidin-3-yl)-6-(piperazin-1-yl)picolinamide]: the IC50 turned out to be 32 nM.

Take `Cc1ccc(C(=O)NC2CCCN(c3cc(-c4ccc(S(C)(=O)=O)cc4)n4ncnc(N)c34)C2)cc1` (centres unmarked) [Example 7, N-(1-(4-amino-7-(4-(methylsulfonyl)phenyl)pyrrolo[2,1-f][1,2,4]triazin-5-yl)piperidin-3-yl)-4-methylbenzamide, TFA]: the IC50 worked out at 90 nM.

Turning to `CS(=O)(=O)c1ccc(-c2cc(N3CCC[C@@H](NC(=O)c4ccccc4F)C3)c3c(N)ncnn23)cc1` [Example 20, (R)-N-(1-(4-amino-7-(4-(methylsulfonyl)phenyl)pyrrolo[2,1-f][1,2,4]triazin-5-yl)piperidin-3-yl)-2-fluorobenzamide], the IC50 came to 47 nM.

With `Cc1nnc2ccc(-c3cc(N4CCC[C@@H](NC(=O)c5ccc(Cl)s5)C4)c4c(N)ncnn34)cn12` [Example 254], the IC50 was 23 nM.

For the compound `COc1ccc(C(=O)N[C@@H]2CCCN(c3cc(-c4ccc(S(C)(=O)=O)cc4)n4ncnc(N)c34)C2)s1` [Example 96, (R)-N-(1-(4-amino-7-(4-(methylsulfonyl)phenyl)pyrrolo[2,1-f][1,2,4]triazin-5-yl)piperidin-3-yl)-5-methoxythiophene-2-carboxamide], the IC50 is 8 nM.

As to `COC(=O)N1CC=C(c2cc(N3CCC[C@@H](NC(=O)c4cc5cc(C#N)ccc5[nH]4)C3)c3c(N)ncnn23)C1` [Example 498, Methyl (R)-3-(4-amino-5-(3-(5-cyano-1H-indole-2-carboxamido)piperidin-1-yl)pyrrolo[2,1-f][1,2,4]triazin-7-yl)-2,5-dihydro-1H-pyrrole-1-carboxylate], the 50% inhibitory concentration (IC50) stood at 41 nM.

On to `CN(C)CCOc1c(C(=O)N[C@@H]2CCCN(c3cc(-c4ccc(C(N)=O)nc4)n4ncnc(N)c34)C2)sc2ccncc12` [Example 670, (R)-N-(1-(4-amino-7-(6-carbamoylpyridin-3-yl)pyrrolo[2,1-f] [1,2,4]triazin-5-yl)piperidin-3-yl)-3-(2-(dimethylamino)ethoxy)thieno [3,2-c]pyridine-2-carboxamide], for which the IC50 was found to be 40 nM.

On to `COc1cc(C(=O)N[C@@H]2CCCN(c3cc(-c4ccc(S(C)(=O)=O)cc4)n4ncnc(N)c34)C2)sn1` [Example 71, (R)-N-(1-(4-amino-7-(4-(methylsulfonyl)phenyl)pyrrolo[2,1-f][1,2,4]triazin-5-yl)piperidin-3-yl)-3-methoxyisothiazole-5-carboxamide], for which the IC50 turned out to be 6 nM.

With `CC(=O)N1CC=C(c2cc(N3CCC[C@@H](NC(=O)c4sc(C(F)F)cc4N4CCOCC4)C3)c3c(N)ncnn23)C1` [Example 319, (R)-N-(1-(7-(1-acetyl-2,5-dihydro-1H-pyrrol-3-yl)-4-aminopyrrolo[2,1-f][1,2,4]triazin-5-yl)piperidin-3-yl)-5-(difluoromethyl)-3-morpholinothiophene-2-carboxamide], the IC50 was determined as 11 nM.

Take `C[C@@H]1CN(CCOc2cc(Cl)sc2C(=O)N[C@@H]2CCCN(c3cc(-c4ccnc(C(F)F)c4)n4ncnc(N)c34)C2)C[C@H](C)O1` [Example 296, N-((R)-1-(4-amino-7-(2-(difluoromethyl)pyridin-4-yl)pyrrolo[2,1-f][1,2,4]triazin-5-yl)piperidin-3-yl)-5-chloro-3-(2-((25,6R)-2,6-dimethylmorpholino)ethoxy)thiophone-2-carboxamide]: the IC50 turned out to be 12 nM.

Regarding `CC(C)N1CCC(c2cc(C(F)F)sc2C(=O)N[C@@H]2CCCN(c3cc(-c4ccc(C#N)nc4)n4ncnc(N)c34)C2)C1` (stereo partly drawn) [Example 403, N-((R)-1-(4-amino-7-(6-cyanopyridin-3-yl)pyrrolo[2,1-f][1,2,4]triazin-5-yl)piperidin-3-yl)-5-(difluoromethyl)-3-(1-isopropylpyrrolidin-3-yl)thiophene-2-carboxamide], the IC50 stood at 229 nM.

In the case of `CC1CC(Oc2cc(Cl)sc2C(=O)NC2CCCN(c3cc(-c4cncnc4)n4ncnc(N)c34)C2)CCN1` (single isomer, unassigned) [Example 625], the IC50 was determined as 6 nM.

On to `CC(=O)N1CC=C(c2cc(N3CCC[C@@H](NC(=O)c4sc(Cl)cc4OC4CCCN(C)C4)C3)c3c(N)ncnn23)C1` (some centres unmarked) [Example 597], for which the IC50 was 10 nM.

Consider “(R)-N-(1-(4-amino-7-12-(2-hydroxypropan-2-yl)pyrimidin-5-yl)pyrrolo[2,1-f][1,2,4]triazin-5-yl)piperidin-3-yl)-5-(difluoromethyl)thiophene-2-carboxamide [Example 519]”, for which the IC50 turned out to be 1050 nM.

As to `Nc1ncnn2c(-c3ccnc(C(F)F)c3)cc(N3CCC[C@@H](NC(=O)c4sc(Cl)cc4OC4CNC4)C3)c12` [Example 632, (R)-N-(1-(4-amino-7-(2-(difluoromethyl)pyridin-4-yl)pyrrolo[2,1-f][1,2,4]triazin-5-y1)piperidin-3-y1)-3-(azetidin-3-yloxy)-5-chlorothiophene-2-carboxamide], the IC50 was 8 nM.

For the compound `CS(=O)(=O)c1ccc(-c2cc(N3CCC[C@@H](NC(=O)c4ccncc4)C3)c3c(N)ncnn23)cc1` [Example 27, (R)-N-(1-(4-amino-7-(4-(methylsulfonyl)phenyl)pyrrolo[2,1-f][1,2,4]triazin-5-yl)piperidin-3-yl)isonicotinamide], the IC50 is 12 nM.

Consider `CC(=O)N1CC=C(c2cc(N3CCC[C@@H](NC(=O)c4sc(Cl)cc4OC4CCNCC4F)C3)c3c(N)ncnn23)C1` (stereo partly drawn) [Example 601, N-((R)-1-(7-(1-acetyl-2,5-dihydro-1H-pyrrol-3-yl)-4-aminopyrrolo[2,1-f][1,2,4]triazin-5-yl)piperidin-3-y1)-5-chloro-3-((3-fluoropiperidin-4-yl)oxy)thiophene-2-carboxamide], for which the IC50 turned out to be 4 nM.

For `Nc1ncnn2c(-c3ccnc(C(F)F)c3)cc(N3CCC[C@@H](NC(=O)c4nc5ccccc5[nH]4)C3)c12` [Example 489, (R)-N-(1-(4-amino-7-(2-(difluoromethyl)pyridin-4-yl)pyrrolo[2,1-f][1,2,4]triazin-5-yl)piperidin-3-yl)-1H-benzo[d]imidazole-2-carboxamide], the concentration for half-maximal inhibition (IC50) was 53 nM.
